Test results: patent US11078157B1, “Compound embodiments that release H2S by reaction with a reactive compound and methods of making and using the same” (University of Oregon, priority 2018, dated 2021)
Entries after “also recorded” stand apart in the source; their conditions may differ. One block for each compound: values may come before it.

Key:
[1] = Reaction product analysis (preparative isolation and HPLC); format: physicochemical; settings: preparative scale reaction, not further hydrolyzed to N-benzoyl-L-cysteine
Experimental: Compound 604a (0.39 mmol, 1.0 equivalents) was dissolved in 15 mL of 2:1 THF/PBS (10 mM, pH 7.4). L-cysteine methyl ester hydrochloride (1.17 mmol, 3.0 equivalents) was added in a single portion and stirred at room temperature for 2 hours. The reaction mixture was diluted with deionized H2O (˜20 mL) and extracted with CH2Cl2 (3×20 mL). The combined organic extracts were washed with brine and dried over MgSO4. After filtration, the solvent was removed under reduced pressure, and the purified by preparative thin layer chromatography (1:1 CH2Cl2 in hexanes). Compound 604a Rf=0.75 (63.6 mg, 76%) and CysDHT Rf=0.03 (11.0 mg, 13%) were isolated and characterized by ^1H and ^13C{^1H} NMR spectroscopy. The significant recovery of compound 604a is likely due to the lack of buffering capacity in the preparative-scale reaction.
To a 20 mL solution of 10% THF in PBS (10 mM, pH 7.4) containing 2 mM L-cysteine methyl ester (20 equivalents), 20 μL of 100 mM compound 604a in THF was added and stirred at room temperature. After 1 hour, a 1 mL reaction aliquot was analyzed by HPLC. HPLC analysis was performed on an Agilent 1260 HPLC instrument with a Poroshell 120 EC-C18 4.6×100 mm column and monitored at 280 nm. […] The concentration of CysDHT and phenol present at the end of the reaction were determined by measurement against calibration curves for each compound (see FIG. 4). […]

[2] = H2S release via methylene blue assay (MBA); format: physicochemical; settings: for H2S release / rate of H2S release, effect of alkyl functionalization: dithioesters 25 μM, cysteine 500 μM (20 equivalents), relative to compound 506a; for H2S release in the presence of cysteine: 25 μM compound, cysteine 500 μM (20 equiv.); for H2S release on treatment with GSH: 500 μM GSH; for H2S release on treatment with cysteine methyl ester: 500 μM cysteine methyl ester, compared with cysteine; for entropy of activation (ΔS‡), Eyring analysis: varied temperature; for H2S release on treatment with homocysteine: 500 μM homocysteine; for H2S release on treatment with penicillamine: 500 μM penicillamine; for H2S release in the absence of added nucleophiles (hydrolysis): H2O/PBS, physiological pH; for H2S release on co-incubation with cysteine and GSH: cysteine 500 μM + GSH 1 mM, compared with cysteine alone; for second-order rate constant (k2) of cysteine-triggered H2S release: cysteine 250-1250 μM, pseudo-first order conditions, plot of [Cys] vs kobs; for dependence of H2S release on cysteine concentration: increasing cysteine concentrations; for reaction order in cysteine: plot of log[Cys] versus log(kobs)
Experimental: H2S Detection Materials and Methods—Phosphate buffered saline (PBS) tablets (1×, CalBioChem) were used to prepare buffered solutions (140 mM NaCl, 3 mM KCl, 10 mM phosphate, pH 7.4) in deionized water. Buffer solutions were sparged with N2 to remove dissolved oxygen and stored in an N2-filled glovebox. Donor stock solutions (in DMSO) were prepared inside an N2-filled glovebox and stored at −25° C. until immediately before use. Trigger stock solutions (in PBS) were freshly prepared in an N2-filled glovebox immediately before use.
General Procedure for Measuring H2S Release via Methylene Blue Assay (MBA)—Scintillation vials containing 20 mL of PBS were prepared in an N2-filled glovebox. To these solutions, 20 μL of 500 mM analyte stock solution (in PBS) was added for a final concentration of 500 μM. While stirring, the solutions were allowed to thermally equilibrate in heating block at the desired temperature for approximately 20-30 minutes. Immediately prior to donor addition, 0.5 mL solution of the methylene blue cocktail were prepared in disposable 1.5 mL cuvettes. The methylene blue cocktail solution contained: 200 μL of 30 mM FeCl3 in 1.2 M HCl, 200 μL of 20 mM N,N-dimethyl-p-phenylene diamine in 7.2 M HCl, and 100 μL of 1% (w/v) Zn(OAc)2. […] At set time points after the addition of donor, 500 μL reaction aliquots were added to the methylene blue cocktail solutions and incubated for 1 hour at room temperature shielded from light. Absorbance values at 670 nm were measured 1 hour after addition of reaction aliquot. Each experiment was performed in quadruplicate unless stated otherwise.
MBA Calibration Curve—Solutions containing 0.5 mL of the methylene blue cocktail and 0.5 mL PBS containing 500 μM cysteine were freshly prepared in disposable cuvettes (1.5 mL). Under inert conditions, a 10 mM stock solution of NaSH (Strem Chemicals) in PBS was prepared and diluted to 1 mM. Immediately after dilution, 1 mM NaSH was added to 1.0 mL solutions for final concentrations of 10, 20, 30, 40, and 50 μM. Solutions were mixed thoroughly, incubated at room temperature for 1 hour, and shielded from light. Absorbance values at 670 nm were measured after 1 hour.
In this example, the released H2S was measured and quantified using the methylene blue assay for H2S. In a typical use of this assay, aliquots from a reaction mixture with the H2S donor and cysteine are treated with 0.5 mL of a methylene blue assay mixture containing 0.1 mL zinc acetate (1% w/v), 0.2 mL FeCl3 (30 mM in 1.2 M HCl), and 0.2 mL N,N-dimethyl-p-phenylene diamine (20 mM in 7.2 M HCl)). After incubation for 1 hour, the absorbance at 670 nm is measured and converted to a H2S concentration by using the H2S calibration curve. To assess the H2S-releasing efficiency from the compound embodiments, a methylene blue calibration curve was used to quantify the H2S release (FIG. 2).

[3] = thiol; cited from earlier work
[4] = pKa and thiolate fraction of thiol triggers (literature); format: physicochemical; settings: under physiological conditions
[5] = 25 μM donor, cysteine, after 1 hour

stability of dihydrothiazole under aqueous conditions [1]: stable under aqueous conditions
SMILES: COC(=O)C1CSC(c2ccccc2)=N1 (stereo not shown) [CysDHT, Methyl 2-phenyl-4,5-dihydrothiazole-4-carboxylate]

SMILES: CC(=S)SCc1ccccc1 [compound 506e]
H2S release / rate of H2S release, effect of alkyl functionalization [2]: H2S release was observed

SMILES: CC(C)C(=S)SCc1ccccc1 [compound 506f]
H2S release / rate of H2S release, effect of alkyl functionalization [2]: relatively slow H2S release

SMILES: O=C(Oc1ccccc1)c1ccccc1 [phenyl benzoate, reference compound]
H2S release in the presence of cysteine [2]: lack of H2S release; also recorded: Neither of these compounds released H2S

effective concentration of thiolate [4]: ~10%
SMILES: N[C@@H](CS)C(=O)O [cysteine]
pKa [3]: ~8.5

SMILES: CC(C)C(=S)Sc1ccccc1 [compound 506c]
H2S release / rate of H2S release, effect of alkyl functionalization [2]: enhanced rates of H2S release

SMILES: S=C(Sc1ccccc1)c1ccccc1 [compound 506a]
H2S release on treatment with GSH ([2]; 25 μM donor): a significant H2S release was not observed
H2S release on treatment with cysteine methyl ester ([2]; 25 μM donor): did not affect H2S release
entropy of activation (ΔS‡), Eyring analysis ([2]; 25 μM donor, 500 μM cysteine): −23±1 eu
H2S release on treatment with homocysteine ([2]; 25 μM donor): a reduction in the H2S release rate
H2S release on treatment with penicillamine ([2]; 25 μM donor): significant H2S release was not observed
H2S release in the absence of added nucleophiles (hydrolysis) ([2]; 25 μM donor): H2S release was not observed
H2S release on co-incubation with cysteine and GSH ([2]; 25 μM donor): Minimal change on the cysteine-triggered H2S release
second-order rate constant (k2) of cysteine-triggered H2S release ([2]; 25 μM donor): 1.8 ± 0.1 M⁻¹ s⁻¹
H2S released after 1 hour [2, 5]: approximately 17 μM
H2S releasing efficiency [2, 5]: ~68%
dependence of H2S release on cysteine concentration ([2]; 25 μM donor): Increasing amounts of H2S released with increasing cysteine concentrations
H2S release with cysteine derivatives having masked thiol or amine ([2]; 25 μM donor, thiol or amine moiety of cysteine masked): reduced H2S release
experimentally-observed ΔH‡ ([2]; Eyring analysis, 25 μM donor, 500 μM cysteine): 14.4 kcal/mol
reaction order in cysteine [2]: first order in cysteine

SMILES: O=C(Sc1ccccc1)c1ccccc1 [S-phenyl benzothioate, reference compound]
H2S release in the presence of cysteine [2]: lack of H2S release; also recorded: Neither of these compounds released H2S

H2S release on treatment with porcine liver esterase (PLE) ([2]; 25 μM donor, PLE 1.0 U/mL): H2S generation was not observed
SMILES: S=C(Oc1ccccc1)c1ccccc1 [compound 604a, O-Phenyl benzothioate]
H2S release in the presence of cysteine [2]: result in H2S release
H2S release on treatment with GSH ([2]; 25 μM donor): does not result in H2S release; also recorded: did not generate H2S
H2S release on treatment with N-acetylcysteine ([2]; 25 μM donor, 500 μM N-acetylcysteine): did not, in H2S release
H2S release on treatment with N-acetylcysteine methyl ester ([2]; 25 μM donor, 500 μM N-acetylcysteine methyl ester): did not, in H2S release
H2S release on treatment with S-methylcysteine ([2]; 25 μM donor, 500 μM S-methylcysteine): did not, in H2S release
H2S releasing efficiency ([2]; 25 μM donor, 500 μM cysteine (20 equivalents)): 80%
H2S release on treatment with cysteine methyl ester ([2]; 25 μM donor): did not affect H2S production
entropy of activation (ΔS‡), Eyring analysis ([2]; 25 μM donor, 500 μM cysteine): −38±3 eu
H2S release on treatment with homocysteine ([2]; 25 μM donor): result in H2S release; also recorded: resulted in H2S release, although at a slower rate than from treatment with cysteine
H2S release on treatment with lysine ([2]; 25 μM donor, 500 μM lysine): did not result in H2S release
H2S release on treatment with penicillamine ([2]; 25 μM donor): result in H2S release
H2S release on treatment with serine ([2]; 25 μM donor, 500 μM serine): did not result in H2S release
H2S release in the absence of added nucleophiles (hydrolysis) ([2]; 25 μM donor): no hydrolysis-mediated H2S release was observed
H2S release on co-incubation with cysteine and GSH ([2]; 25 μM donor): results in H2S release, albeit at a slower rate than with Cys alone; also recorded: a reduced rate of H2S release was observed
Cysteine-triggered H2S release in the presence of lysine ([2]; 25 μM donor, cysteine 500 μM + lysine 500 μM): no change in H2S releasing-efficiency was observed
second-order rate constant (k2) of cysteine-triggered H2S release ([2]; 25 μM donor): 9.1 ± 0.3 M⁻¹ s⁻¹
dependence of H2S release on cysteine concentration ([2]; 25 μM donor): dose-dependent release of H2S; also recorded: Increased cysteine concentrations led to increased rates of H2S production
H2S released ([2]; 25 μM solution of donor, 500 μM cysteine (20 equivalents)): 20 µM
reaction order in cysteine [2]: first-order dependence in cysteine

effective concentration of thiolate [4]: ~0.03%
SMILES: N[C@@H](CCS)C(=O)O [homocysteine]
pKa [3]: ~10

SMILES: S=C(SCc1ccccc1)c1ccccc1 [compound 506d]
H2S release / rate of H2S release, effect of alkyl functionalization [2]: minimal H2S release

SMILES: CC(=S)Sc1ccccc1 [compound 506b]
H2S release / rate of H2S release, effect of alkyl functionalization [2]: enhanced rates of H2S release
